Assay results as given in patent US20180049457A1, “ENZYMATIC SYNTHESIS OF SOLUBLE GLUCAN FIBER” (E I DU PONT DE NEMOURS AND COMPANY, priority 2014, published 2018).

Tests used:
intestinal microbiota = assay: In vitro gas production by intestinal microbiota (pre-conditioned faecal slurry); type: cell-based
Experimental: To measure the formation of gas by the intestinal microbiota, a pre-conditioned faecal slurry was incubated with test prebiotic (oligosaccharide or polysaccharide soluble fibers) and the volume of gas formed was measured. Fresh faecal material was pre-conditioned by dilution with 3 parts (w/v) of anaerobic simulator medium, stirring for 1 h under anaerobic conditions and filtering through 0.3-mm metal mesh after which it was incubated anaerobically for 24 h at 37° C.
The simulator medium used was composed as described by G. T. Macfarlane et al. (Microb. Ecol. 35(2):180-7 (1998)) containing the following constituents (g/L) in distilled water: starch (BDH Ltd.), 5.0; peptone, 0.05; tryptone, 5.0; yeast extract, 5.0; NaCl, 4.5; KCl, 4.5; mucin (porcine gastric type III), 4.0; casein (BDH Ltd.), 3.0; pectin (citrus), 2.0; xylan (oatspelt), 2.0; arabinogalactan (larch wood), 2.0; NaHCO3, 1.5; MgSO4, 1.25; guar gum, 1.0; inulin, 1.0; cysteine, 0.8; KH2PO4, 0.5; K2HPO4, 0.5; bile salts No. 3, 0.4; CaCl2×6 H2O, 0.15; FeSO4×7 H2O, 0.005; hemin, 0.05; and Tween 80, 1.0; cysteine hydrochloride, 6.3; Na2S×9 H2O, and 0.1% resazurin as an indication of sustained anaerobic conditions. The simulation medium was filtered through 0.3 mm metal mesh and divided into sealed serum bottles.
Test prebiotics were added from 10% (w/w) stock solutions to a final concentration of 1%. The incubation was performed at 37° C. while maintaining anaerobic conditions. Gas production due to microbial activity was measured manually after 24 h incubation using a scaled, airtight glass syringe, thereby also releasing the overpressure from the simulation unit.
Solutions of chromatographically-purified soluble oligosaccharide/polysaccharide fibers were dried to a constant weight by lyophilization. The individual soluble oligosaccharide/polysaccharide soluble fiber samples were subsequently evaluated as carbon source for in vitro gas production using the method described in the General Methods. PROMITOR® 85 (soluble corn fiber, Tate & Lyle), NUTRIOSE® FM06 (soluble corn fiber or dextrin, Roquette), FIBERSOL-2® 600F (digestion-resistant maltodextrin, Archer Daniels Midland Company & Matsutani Chemical), ORAFTI® GR (inulin from Beneo, Mannheim, Germany), LITESSE® Ultra™ (polydextrose, Danisco), GOS (galactooligosaccharide, Clasado Inc., Reading, UK), ORAFTI® P95 (oligofructose (fructo-oligosaccharide, FOS, Beneo), LACTITOL MC (4-O-β-D-Galactopyranosyl-D-glucitol monohydrate, Danisco) and glucose were included as control carbon sources. Table 61 lists the In vitro gas production by intestinal microbiota at 3 h and 24 h. Table 62 lists the in vitro gas production by intestinal microbiota from controls and the sequences identified from the GTF0459 homolog sequence search. Table 63 lists the in vitro gas production by intestinal microbiota from controls and truncations of homolog sequences identified from the GTF0459 homolog sequence search.

human faecal microbiota = assay: Colonic fermentation modeling (semi-continuous colon simulator) and measurement of fatty acids; type: cell-based; conditions: test component 1% in ileal fluid, 48 h
Excerpt: Colonic fermentation was modeled using a semi-continuous colon simulator as described by Makivuokko et al. (Nutri. Cancer (2005) 52(1):94-104); in short; a colon simulator consists of four glass vessels which contain a simulated ileal fluid as described by Macfarlane et al. (Microb. Ecol. (1998) 35(2):180-187). The simulator is inoculated with a fresh human faecal microbiota and fed every third hour with new ileal liquid and part of the contents is transferred from one vessel to the next. The ileal fluid contains one of the described test components at a concentration of 1%. The simulation lasts for 48 h after which the content of the four vessels is harvested for further analysis. The further analysis involves the determination of microbial metabolites such as short chain fatty acids (SCFA); also referred to as volatile fatty acids (VFA) and branched chain fatty acids (BCFA). Analysis was performed as described by Holben et al. (Microb. Ecol. (2002) 44:175-185); in short; simulator content was centrifuged and the supernatant was used for SCFA and BCFA analysis. Pivalic acid (internal standard) and water were mixed with the supernatant and centrifuged. After centrifugation, oxalic acid solution was added to the supernatant and then the mixture was incubated at 4° C., and then centrifuged again. The resulting supernatant was analyzed by gas chromatography using a flame ionization detector and helium as the carrier gas. Comparative data generated from samples of LITESSE® ULTRA™ (polydextrose, Danisco), ORAFTI® P95 (oligofructose; fructo-oligosaccharide, “FOS”, Beneo), lactitol (Lactitol MC (4-O-β-D-galactopyranosyl-D-glucitol monohydrate, Danisco), and a negative control is also provided. The concentration of acetic, propionic, butyric, isobutyric, valeric, isovaleric, 2-methylbutyric, and lactic acid was determined (Table 64).

[1] = GTF activity of strains (PAHBAH assay); type: biochemical; conditions: enzyme expressed in B. subtilis host
How it was run: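 Glucosyltransferase (GTF) activity of the bacterial strains was measured with the PAHBAH assay. The enzymes tested were truncated GTF variants produced in a Bacillus subtilis expression host. Measurements were split across three separate experiments, and each activity value is reported together with the experiment it came from because results varied slightly between experiments.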

O.OC[C@@H](O)[C@@H](O[C@@H]1O[C@H](CO)[C@H](O)[C@H](O)[C@H]1O)[C@H](O)[C@@H](O)CO [LACTITOL ® MC]
mL gas formation in 3 h (intestinal microbiota; Table 61): 2.0 mL | mL gas formation in 3 h (intestinal microbiota; Table 62): 2.0 mL | mL gas formation in 3 h (intestinal microbiota; Table 63): 3.0 mL | mL gas formation in 24 h (intestinal microbiota; 24 h, Table 61): 4.8 mL | mL gas formation in 24.5 h (intestinal microbiota; Table 62): 1.5 mL | mL gas formation in 24.5 h (intestinal microbiota; Table 63): 2.0 mL

O.OC[C@@H](O)[C@@H](O[C@@H]1O[C@H](CO)[C@H](O)[C@H](O)[C@H]1O)[C@H](O)[C@@H](O)CO [LACTITOL MC, 4-O-β-D-Galactopyranosyl-D-glucitol monohydrate]
Acetic (human faecal microbiota): 318 mM | Branched Chain Fatty Acids (BCFA) (human faecal microbiota): 7.5 mM | Butyric (human faecal microbiota): 94 mM | Lactic (human faecal microbiota): 52 mM | Propionic (human faecal microbiota): 42 mM | Short Chain Fatty Acids (SCFA) (human faecal microbiota): 506 mM

B1: GTF0974T4: T4 C-terminal truncation of GTF0974 glucosyltransferase, SEQ ID NO: 128, strain SG1316 (protein)
chain: INGKQYYVNSDGSVRKNFVFEQDGKSYYFDAETGALATKSQDEFSTEPIKATVDFSSGNQLYKNDDKSLDQLDTFITADAWYRPKSILKDGKTWTASTEADKRPLLMVWWPDKSTQVNYLNYMQNQGLGAGSFSTNSSQESLDQAAKAVQTKIEERIAREGNTNWLRTSIDQFIKTQPGWNSSTENSSYDHLQGGQLLFNNSKGDTGNRTSHANSDYRLLNRTPTNQTGTRKYFKDNSIGGLEFLLANDIDNSNPAVQAEQLNWLHFMMNIGSIMANDPTANFDGLRVDALDNVDADLLQIASDYFKAAYGVDKSEANAIKHLSYLEAWSANDPYYNKDTKGAQLPIDNALRNALTNLLMRDKNTRMQLGDMTAFINSSLNPRGANDKNGERMANYIFTRAHDTEAQTIIQRIIRDRINPNLFGYNFTRDEIKKAFEIYNEDIDKAHKTYASYNLPSVYALMLTNKDSVTRVYYGDLYREDGHYMAKKTPYFDAIDTLLRARIKYVAGGQDMEVKKVGNDGLLTSVRYGKGANNRTDLGTSETRTQGMGVIMTNNYDFRLGSNETVTMNMGRAHRNQLYRPLLLTTKDGIATYLNDSDVPKKLLKRTDWNGNLTFNANDVFGVENVQVSGYLGVWVPYGAKANQDARTQPSNRANSDGQVYKSSAALDSQVMYEAFSNFQAFADDQPELYMNRVLAKNTDLLKAWGITSVGLPPQYVSSKDGTFLDSTIDNGYAFDDRYDMALSQNNKYGSLEDLLNVLRALHKDGIQAIADWVPDQIYNLPGKEVVNATRVNGYGNHQVGYQIIDQAYVANTRTDGTDYQGKYGGAFLDELKAKYPSIFNRVQISNGKQLPTNEKITKWSAKYFNGTNILGRGINYVLRDDKTNQYFNTSANSQLLPTPLRDTGAITSTQVFQRRGQDVYFLRDNQAVKNEFVQDGNGNWYYFGGDGKMTKGAQNINNKDYYFFDNGIQLRNALRRASNGYTYYYGLDGAMVKNAFVDFDDKHK
modifications: T4 C-terminal truncation of GTF0974
GTF activity of strains: Acitivity ([1]; Experiment Number 2): 47.2 U/mL | GTF activity of strains: Acitivity ([1]; Experiment Number 3): 33.9 U/mL

B2: GTF4991T2: T2 C-terminal truncation of GTF4991, SEQ ID NO: 150, strain SG1311 (protein)
chain: INGKQYYVNSDGSVRKNFVFEQDGKSYYFDAETGALATKSQDEFSTEPIKATVDFSSGNQLYKNDDKSLDQLDTFITADAWYRPKSILKDGKTWTASTEADKRPLLMVWWPDKSTQVNYLNYMQNQGLGAGSFSTNSSQESLDQAAKAVQTKIEERIAREGNTNWLRTSIDQFIKTQPGWNSSTENSSYDHLQGGQLLFNNSKGDTGNRTSHANSDYRLLNRTPTNQTGTRKYFKDNSIGGLEFLLANDIDNSNPAVQAEQLNWLHFMMNIGSIMANDPTANFDGLRVDALDNVDADLLQIASDYFKAAYGVDKSEANAIKHLSYLEAWSANDPYYNKDTKGAQLPIDNALRNALTNLLMRDKNTRMQLGDMTAFINSSLNPRGANDKNGERMANYIFTRAHDTEAQTIIQRIIRDRINPNLFGYNFTRDEIKKAFEIYNEDIDKAHKTYASYNLPSVYALMLTNKDSVTRVYYGDLYREDGHYMAKKTPYFDAIDTLLRARIKYVAGGQDMEVKKVGNDGLLTSVRYGKGANNRTDLGTSETRTQGMGVIMTNNYDFRLGSNETVTMNMGRAHRNQLYRPLLLTTKDGIATYLNDSDVPKNLLKRTDWNGNLTFNANDVFGVENVQVSGYLGVWVPYGAKANQDARTQPSNRANSDGQVYKSSAALDSQVMYEAFSNFQAFADDQPELYMNRVLAKNTDLLKAWGITSVGLPPQYVSSKDGTFLDSIIDNGYAFDDRYDMALSQNNKYGSLEDLLNVLRALHKDGIQAIADWVPDQIYNLPGKEVVNATRVNGYGYHQQGYQIVDQAYVANTRTDGTDYQGKYGGAFLDELKAKYPSIFNRVQISNGKQLPTNEKITKWSAKYFNGTNILGRGINFVLRDDKTNQYFNTSANSQLLPTPLRDTGAITSTQVFQRRGQDVYFLRDNQTVKNEFVQDGNGNWYYFGGDG
modifications: T2 C-terminal truncation of GTF4491
GTF activity of strains: Acitivity ([1]; Experiment Number 1): 4.9 U/mL

B3: GTF4991T6: T6 C-terminal truncation of GTF4991, SEQ ID NO: 152, strain SG1312 (protein)
chain: INGKQYYVNSDGSVRKNFVFEQDGKSYYFDAETGALATKSQDEFSTEPIKATVDFSSGNQLYKNDDKSLDQLDTFITADAWYRPKSILKDGKTWTASTEADKRPLLMVWWPDKSTQVNYLNYMQNQGLGAGSFSTNSSQESLDQAAKAVQTKIEERIAREGNTNWLRTSIDQFIKTQPGWNSSTENSSYDHLQGGQLLFNNSKGDTGNRTSHANSDYRLLNRTPTNQTGTRKYFKDNSIGGLEFLLANDIDNSNPAVQAEQLNWLHFMMNIGSIMANDPTANFDGLRVDALDNVDADLLQIASDYFKAAYGVDKSEANAIKHLSYLEAWSANDPYYNKDTKGAQLPIDNALRNALTNLLMRDKNTRMQLGDMTAFINSSLNPRGANDKNGERMANYIFTRAHDTEAQTIIQRIIRDRINPNLFGYNFTRDEIKKAFEIYNEDIDKAHKTYASYNLPSVYALMLTNKDSVTRVYYGDLYREDGHYMAKKTPYFDAIDTLLRARIKYVAGGQDMEVKKVGNDGLLTSVRYGKGANNRTDLGTSETRTQGMGVIMTNNYDFRLGSNETVTMNMGRAHRNQLYRPLLLTTKDGIATYLNDSDVPKNLLKRTDWNGNLTFNANDVFGVENVQVSGYLGVWVPYGAKANQDARTQPSNRANSDGQVYKSSAALDSQVMYEAFSNFQAFADDQPELYMNRVLAKNTDLLKAWGITSVGLPPQYVSSKDGTFLDSIIDNGYAFDDRYDMALSQNNKYGSLEDLLNVLRALHKDGIQAIADWVPDQIYNLPGKEVVNATRVNGYGYHQQGYQIVDQAYVANTRTDGTDYQGKYGGAFLDELKAKYPSIFNRVQISNGKQLPTNEKITKWSAKYFNGTNILGRGINFVLRDDKTNQYFNTSANSQLLPTPLRDTGAITSTQVFQRRGQDVYFLRDNQTVKNEFVQDGNGNWYYFGGDGKMTKGAQNINSKDYYFFDNGVQLRNALRRASNGYTYYYGLDGAMVKNAFVDFDDKHKQVRAFTTQG
modifications: T6 C-terminal truncation of GTF4491
GTF activity of strains: Acitivity ([1]; Experiment Number 1): 1.7 U/mL
